Consider two compounds from patent US20200306254A1, “COMBINATION OF ERK1/2 INHIBITOR COMPOUND WITH GEMCITABINE OR WITH GEMCITABINE AND NAB-PACLITAXEL FOR USE IN TREATMENT OF PANCREATIC CANCER” (Eli Lilly and Company, priority 2016, published 2020).

Experiment [1] deals with human pancreatic cancer cells MIA PaCa2 xenograft. Briefly: Xenograft Tumor Model (MIA PaCa2). To be noted: for Delta T/C % or Regression %: oral gavage, 14 days. It is filed as in vivo, female athymic nude mice. On the procedure: The purpose of this assay is to measure reduction in tumor volume in response to test compound administration. Expand human pancreatic cancer cells MIA PaCa2 (ATCC, # CRL1420) in culture, harvest and inject 5×10e^6 cells in 200 μL of 1:1 HBSS+matrigel solution subcutaneously on the rear right flank of female athymic nude mice (22-25 g, Harlan Laboratories). Measure tumor growth and body weight twice per week beginning the seventh day after the implantation. When tumor sizes reach 200-400 mm^3, randomize animals and group into groups of eight to ten animals. Prepare test compound in an appropriate vehicle (vehicle: […]/0.25% TWEEN® 80/0.05% Antifoam) and administer by oral gavage daily for 14 days. Tumor response is determined by tumor volume measurement performed twice a week during the course of treatment. Body weight is taken as a general measure of toxicity.
Regression % is calculated when the endpoint volume is below baseline. The formula is 100*(T−T0)/T0. Where T0 is the mean baseline tumor volume for the treated group. Grand mean of all groups from baseline (randomization) at day 20 used to compute % change of T/C.

The test system of experiment [2] is ERK substrate (RSK) phosphorylation in HCT116 colorectal cancer cell line. Briefly: ERK1/2 Cell Mechanistic Assay (pRSK1 Alphascreen Assay). It is filed as cell-based. The note with it: Homo sapiens, HCT-116, HCT116 cells, 2 h, n=8, read-out: IC50, ERK substrate (RSK) phosphorylation in tumor cells. On the procedure:
The purpose of this assay is to measure the ability of a compound to inhibit ERK signaling in cancer cells in vitro. Carry out the pRSK1 Alphascreen assay using the HCT116 colorectal cancer cell line (ATCC, # CCL-247). Routinely culture HCT116 cells in Dulbecco's Modified Eagle's Medium (DMEM) (Hyclone, # SH30022) growth medium containing 5%0/Fetal Bovine Serum (FBS) (Gibco, #16000-044) in T-150 flasks and incubate in a 5% CO2 incubator at 37° C. Harvest cells when they become confluent and freeze in freezing medium at 1×10e^7 cells/mL as “assay ready frozen cells” and store in liquid nitrogen. To run the assay, plate 40,000 HCT116 cells/well in a 96-well tissue culture plate and incubate at 37° C. in a 5% CO2 incubator overnight. Test compounds at 10 concentrations starting at a 20 μM top concentration and utilize a 1:3 dilution scheme (20 μM to 0.001 μM) with a final DMSO concentration of 0.5% (v/v). Add compounds in 20 μL serum free growth medium and incubate at 37° C. for two hours. Remove growth medium and add 50 μL of 1× lysis buffer [Cell Signaling Technology, #9803] containing 1× holt protease and […] inhibitor cocktail [Thermo, #78441] to each well and incubate at room temperature for 10 minutes on a shaker. […] Measure the fluorescence intensity in each well by reading the plates in ENVISION® (PerkinElmer) plate reader. […]
On the technique in general: Bead proximity is the source of the signal in Alpha formats.

The test system of experiment [3] is KRAS mutant (G12V) Capan-2 pancreatic cancer xenograft. It is filed as in vivo. To be noted: for Delta T/C % or % Regression: Day 34, Compound A 50 mg/kg QD PO, gemcitabine 100 mg/kg once weekly IP; for Difference (Treatment 1 − Treatment 2), tumor growth: Treatment 1 = Vehicle QD x 28 PO, log10 tumor volume, Compound A 50 mpk QD x 28 PO, Gemcitabine 100 mpk Q7D x 4 IP; for inhibition of tumor growth: single agents vs vehicle control group, combination vs each single agent alone. On the procedure:
Human pancreatic cancer cell line Capan-2 (ATCC cat # HTB-80) are cultured in DMEM supplemented with 10% fetal bovine serum, sodium pyruvate, nonessential amino acids, L-glutamine, and penicillin-streptomycin (Invitrogen, Carlsbad, Calif.). All cultures are maintained in a humidified incubator at 37° C. under 5% CO2/95% air free off mycoplasma and pathogenic murine viruses. The cells are used for experiments at passages <7 after recovery from frozen stocks.
Female CB-17 SCID nude mice are ordered from Charles River Laboratories International, Inc. All animals are acclimated for one week before the use and are housed and maintained in specific pathogen-free conditions in accordance with the guidelines of the American Association for Laboratory Animal Care and all current regulations and standards of the U.S. Departments of Agriculture and of Health and Human Services and the NIH. The experiment protocol is approved by the Eli Lilly and Company Animal Care and Use Committee.
Logarithmically growing Capan-2 cells (5×10^6/200 μL, single-cell suspensions of over 95% viability in Hank's medium mixed with equal volume of Matrigel (Becton Dickinson & Co., San Jose, Calif.)) are subcutaneously injected into the flank of the mice. When the average tumor volume reaches about 200 to 300 mm^3 following tumor cell implantation, the animals are randomized into different groups (n=5). The animals are treated with vehicle control (1% HEC/0.25% TWEEN® 80/0.05% Antifoam, daily, orally), Compound A (50 mg/kg, QD, PO), gemcitabine (100 mg/kg, once weekly, intraperitoneal), and the combination for 4 weeks. Compound A was formulated in 1% HEC/0.25% TWEEN® 80/0.05% Anti foam and gemcitabine is formulated in phosphate buffered saline (lx). Tumor volume and body weight are measured twice weekly. Tumor volume is estimated by using the formula: v=l×w2×0.536 where l=larger of measured diameter and w=smaller of perpendicular diameter.
The statistical analysis of the tumor volume data begins with a data transformation to a log scale to equalize variance across time and treatment groups. The log volume data are analyzed with a two-way repeated measures analysis of variance by time and treatment using the MIXED procedures in SAS software (Version 9.3). The correlation model for the repeated measures is Spatial Power. Treated groups are compared to the control group at each time point. The MIXED procedure is also used separately for each treatment group to calculate adjusted means and standard errors at each time point. Both analyses account for the autocorrelation within each animal and the loss of data that occurs when animals with large tumors are removed from the study early. The adjusted means and standard errors (s.e.) are plotted for each treatment group versus time. Analysis for tumor volume is based on log10 and spatial power covariance structure. P value is based on the comparison between two specific groups.
First, the usual repeated measures model is fit to log volume versus group and time. Then contrast statements are used to test for an interaction effect at each time point using the 2 specific treatments that are combined. This is equivalent to the Bliss Independence method and assumes that tumor volumes can, in theory, reach zero, i.e., complete regression. The expected additive response (EAR) for the combination is calculated on the tumor volume scale as: response (EAR) EAR volume=V1*V2/V0, where V0, V1, and V2 are the estimated mean tumor volumes for the vehicle control, treatment 1 alone, and treatment 2 alone, respectively. If the interaction test is significant, the combination effect is declared statistically more than additive or less than additive depending on the observed combination mean volume being less than or more than the EAR volume, respectively. Otherwise, the statistical conclusion is additive. In addition, a biologically relevant range of additivity can be defined as X % above and below the EAR volume. Typically, X would be 25 to 40%. […]

The structures appear in SMILES notation. Where two headings read alike, the source gives them in different places.

What is called IC50 is the concentration needed to halve the response being measured. Consider `Cn1nccc1Nc1nccc(-c2cc3c(s2)C(C)(C)N(CCN2CCOCC2)C3=O)n1` [Compound A, 6,6-Dimethyl-2-{2-[(1-methyl-1H-pyrazol-5-yl)amino]pyrimidin-4-yl}-5-[2-(morpholin-4-yl)ethyl]-5,6-dihydro-4H-thieno[2,3-c]pyrrol-4-one], for which the “Delta T/C % or Regression %” value in experiment [1] (MIA PaCa2 xenograft, 25 mg/kg QD) is reported as 2%; in experiment [1] (MIA PaCa2 xenograft, 50 mg/kg QD) it was −22%; in experiment [1] (MIA PaCa2 xenograft, 100 mg/kg QD), −66%; in experiment [1] (MIA PaCa-2 xenograft, 12.5 mg/kg QD) it was 32%. Moreover, the “anti-tumor activity” value in experiment [1] (human pancreatic cancer xenograft model (MIA PaCa2)) was “significant anti-tumor activity”. Moreover, in experiment [2], the IC50 stood at 0.429 µM. In experiment [3], the “Delta T/C % or % Regression” value amounted to 40%. Besides, in experiment [3], the “Difference (Treatment 1 − Treatment 2), tumor growth” value amounted to 0.397. In experiment [3], the “inhibition of tumor growth” value was “partial inhibition of tumor growth”.

For `Nc1ccn([C@@H]2O[C@H](CO)[C@@H](O)C2(F)F)c(=O)n1` [Gemcitabine, gemcitabine], in experiment [3], the “Delta T/C % or % Regression” value worked out at 24%; the “Difference (Treatment 1 − Treatment 2), tumor growth” value is 0.633; the “inhibition of tumor growth” value is listed as “partial inhibition of tumor growth”. In addition, the “Delta T/C % or % Regression” value in experiment [3] (listed as gemcitabine) is 20%.
